≈ marks a conversion by molar mass, not a printed value. Where only a bound is given, the exact number is not on record here.

Experiment [1] concerns Pseudomonas aeruginosa (DSM 1128). Nature of the experiment: MIC study on agar, bacterial strain. The experiment is classed as cell-based. To be noted: DSM1128, Caso-Agar pH 7.3, 2 to 3 weeks at 20 to 25° C. in the dark. As for the experimental part: (§1) Equal amounts of mixtures were poured into four Petri dishes. After cooling, the Petri dishes were inoculated with the respective standard strains. During the experiment, the Petri dishes were kept for 2 to 3 weeks at room temperature of about 20 to 25° C. in the dark. The following two different types of culture media were employed for the present studies: • i. […] The preferred bacterial strains for the present application are Pseudomonas aeruginosa (DSM 1128), Staphylococcus aureus (DSM 799), E. Coli (DSM 1576), Proteus mirabilis (DSM 788) and Burkholderia cepacia (DSM 7288), and the preferred fungal strains are Aspergillus brasiliensis (DSM 1988), Penicillium expansum (DSM 1282), Trichoderma viride (DSM 63064), and the yeast is Candida albicans, (DSM 1386). After 2nd and 3rd weeks macroscopic evaluations were performed, the ratings are as follows: The formulation under examination is considered to be efficient if the following conditions are duly fulfilled i.e. (i) after 2-3 weeks no growth of the tested culture is visible; (ii) with rising concentration of the tested formulation, the germ growth should macroscopically be reduced until it is not visible any more.

Experiment [2] relates to Proteus mirabilis (DSM 788). In words: MIC study on agar, bacterial strain. It is filed as cell-based. To be noted: DSM788, Caso-Agar pH 7.3, 2 to 3 weeks at 20 to 25° C. in the dark. As for the experimental part: as §1
The subject of experiment [3] is Burkholderia cepacia (DSM 7288). Nature of the experiment: MIC study on agar, bacterial strain. The experiment is classed as cell-based. As for the experimental part: as §1
The test system of experiment [4] is Staphylococcus aureus (DSM 799). In words: MIC study on agar, bacterial strain. The experiment is classed as cell-based. To be noted: DSM799, Caso-Agar pH 7.3, 2 to 3 weeks at 20 to 25° C. in the dark. How it is done: as §1
The test system of experiment [5] is Candida albicans, (DSM 1386). Nature of the experiment: MIC study on agar, yeast strain. It is filed as cell-based. To be noted: DSM1386, Candida albican, Malt extract-Agar (3%) pH 5.6, 2 to 3 weeks at 20 to 25° C. in the dark. How it is done:
as §1

The test system of experiment [6] is Aspergillus brasiliensis (DSM 1988). Nature of the experiment: MIC study on agar, fungal strain. The experiment is classed as cell-based. How it is done: as §1
Experiment [7] concerns Trichoderma viride (DSM 63064). In words: MIC study on agar, fungal strain. The experiment is classed as cell-based. As for the experimental part:
as §1

Experiment [8] concerns Penicillium expansum (DSM 1282). Nature of the experiment: MIC study on agar, fungal strain. To be noted: DSM1282, Penicillim expansum, Malt extract-Agar (3%) pH 5.6, 2 to 3 weeks at 20 to 25° C. in the dark. It is filed as cell-based. How it is done: as §1
The subject of a further experiment is E. Coli (DSM 1576). In words: MIC study on agar, bacterial strain. The experiment is classed as cell-based, Escherichia coli. As for the experimental part:
as §1

Take `O=c1cccccc1O` [Tropolone, 2-Hydroxy-2,4,6-cycloheptatrien-1-one]: the minimal inhibitory concentration (MIC) in experiment [1] came out at 500 µg/mL (≈ 4090 µM); in [2], 250 µg/mL (≈ 2050 µM); in [3] (DSM7288, Burkholderia cepacia, Caso-Agar pH 7.3, 2 to 3 weeks at 20 to 25° C. in the dark) it was 250 µg/mL (≈ 2050 µM); in experiment [4] it was 250 µg/mL (≈ 2050 µM); in experiment [5], 20 µg/mL (≈ 164 µM); in [6] (DSM1988, Aspergillus brasiliensis, Malt extract-Agar (3%) pH 5.6, 2 to 3 weeks at 20 to 25° C. in the dark) it was 50 µg/mL (≈ 409 µM). The minimum inhibitory concentration (MIC) is 250 µg/mL (≈ 2050 µM) in experiment [7] (DSM63064, Trichoderma viride, Malt extract-Agar (3%) pH 5.6, 2 to 3 weeks at 20 to 25° C. in the dark); 100 µg/mL (≈ 819 µM) in experiment [8]; 250 µg/mL (≈ 2050 µM) in the experiment on E. Coli (DSM 1576) (DSM1576, Escherichia coli, Caso-Agar pH 7.3, 2 to 3 weeks at 20 to 25° C. in the dark). For the same compound, the “reduction of MIC level of tropolone” value in [3] (by sorbitan caprylate (Velsan SC), against Burkholderia cepacia) was greater than 90%; in experiment [6] (by sorbitan caprylate (Velsan SC), against Aspergillus brasiliensis) it was greater than 50%; in experiment [7] (by sorbitan caprylate (Velsan SC), against Trichoderma viride), greater than 50%; in the experiment with E. Coli (DSM 1576) (in presence of 1,3-propanediol (Zemea), against Escherichia coli), greater than 50%.

What is called MIC is the lowest concentration found to suppress growth. Lower therefore signals a more susceptible organism.

For the origin of these results see patent US9226882B2, “Eco-friendly non-aqueous antimicrobial composition comprising tropolone with 1,3-propanediol and/or sorbitan caprylate” (ISP INVESTMENTS INC., priority 2012, dated 2016).
